The source of these data is publication PMC7497630, “Coibamide A Targets Sec61 to Prevent Biogenesis of Secretory and Membrane Proteins” (ACS Chemical Biology, 2020).

Assay [1] concerns A549 human lung adenocarcinoma cells. The following applies: 72 h.
For assay [2], the target named is Sec61α in U87-MG glioblastoma cells (Homo sapiens, UniProt P61619). Put plainly: Cellular thermal shift assay. Format: cell-based. The settings on record: intact U87-MG cells.
Another assay deals with HCT116 cells. Put plainly: Cell viability, Alamar Blue assay. Type of assay: cell-based, human. The settings on record: HCT116, 72 h, 0.1% DMSO (Figure 1D), read-out: IC50. On the procedure: Figure 1 Cytotoxicity of synthetic and Pra-containing coibamides. (A) Structure of CbA. (B) Human MDA-MB-231 breast cancer cells were treated with increasing concentrations of synthetic CbA or vehicle (0.1% DMSO) and cell viability assessed at 72 h by an MTS end-point assay. (C) Structure of Photo-CbA. (D) Human HCT116 cells were treated with increasing concentrations of synthetic or photo-CbA in 0.1% DMSO, and cell viability assessed at 72 h by Alamar Blue assay. TEXT PRINTED IN THE PICTURE: (B) CbA: MDA-MB-231 cell line: IC50(nM): 1.6 | (D) CbA: HCT 116 cell line: IC50(nM): 29.2 | (D) Photo-CbA: HCT 116 cell line: IC50(nM): 6.5
Figure 5 CbA mode of inhibition is specific compared to known Sec61 inhibitors. (A) Cell viability was measured by Alamar Blue assay (mean ± SD, n = 4, all cell lines assayed simultaneously) for HCT-116 cell lines isolated on the basis of CbA resistance in the presence of concentration series of indicated compounds. (B) Cell viability was measured by Alamar Blue assay (mean ± SD, n = 4, all cell lines assayed simultaneously) for HEK293FRT cells stably expressing Sec61α mutants in the presence of concentration series of indicated compounds. (C) Comparison of published NCI60 data for CbA,[3] AprA,[11] and IpoF.[33] The heat map was derived by plotting each GI50 value divided by the median GI50 for that compound. X indicates a cell line that was not tested. Closed arrowhead indicates cell lines with most notable differences across the three compounds. […]
A431, HEK293T, and HEK293FRT cells were cultured in DMEM supplemented with 10% FBS. […] Viability was estimated by the addition of Alamar Blue (Life Technologies) and measuring fluorescence after a further 4 h. […]

Molecules are shown by their SMILES. Bridge positions count the residues as written; N and C are the ends. Square brackets hold non-standard residues; d marks the D form. Peptide text beside a SMILES is read from it. * marks the point of attachment. Phe(4-CF3-diazirinyl) = N[C@@H](Cc1ccc(C2(C(F)(F)F)N=N2)cc1)C(=O)O; NMe2Val = CC(C)[C@@H](C(=O)*)N(C)C; NMeI = CC[C@H](C)[C@H](NC)C(=O)O; NMeT = CN[C@H](C(=O)O)[C@@H](C)O; NMeL = CN[C@@H](CC(C)C)C(=O)O; NMePra = C#CC[C@H](NC)C(=O)O; dHiv = CC(C)[C@@H](O)C(=O)O; NMeS = CN[C@@H](CO)C(=O)O; Pra = C#CC[C@H](N)C(=O)O; dNMeA = CN[C@H](C)C(=O)O

Chain of Sec61α in U87-MG glioblastoma cells (P61619 whole entry): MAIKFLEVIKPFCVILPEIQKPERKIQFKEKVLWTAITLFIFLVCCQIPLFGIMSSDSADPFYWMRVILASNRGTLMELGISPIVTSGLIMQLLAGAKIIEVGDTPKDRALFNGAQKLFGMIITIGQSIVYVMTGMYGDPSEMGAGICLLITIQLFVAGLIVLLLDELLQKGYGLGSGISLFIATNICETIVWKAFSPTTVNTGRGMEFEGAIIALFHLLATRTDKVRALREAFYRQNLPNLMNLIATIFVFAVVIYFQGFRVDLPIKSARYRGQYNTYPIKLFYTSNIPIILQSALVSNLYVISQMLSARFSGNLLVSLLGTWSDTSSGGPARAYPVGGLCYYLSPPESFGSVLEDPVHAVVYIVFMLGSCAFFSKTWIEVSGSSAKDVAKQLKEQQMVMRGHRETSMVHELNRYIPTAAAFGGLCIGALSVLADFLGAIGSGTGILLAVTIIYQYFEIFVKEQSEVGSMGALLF
Chain of Sec61α in U87-MG glioblastoma cells (P60468 2-96 partner limits assumed): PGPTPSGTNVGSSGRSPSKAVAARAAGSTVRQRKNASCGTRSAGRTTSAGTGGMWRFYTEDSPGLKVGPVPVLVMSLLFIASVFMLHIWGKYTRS
Chain of Sec61α in U87-MG glioblastoma cells (P60059 whole entry partner): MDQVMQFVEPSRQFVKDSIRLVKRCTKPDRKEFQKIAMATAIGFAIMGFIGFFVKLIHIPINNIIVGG

In assay [1], `C#CC[C@H]1C(=O)N[C@@H](C)C(=O)N(C)[C@@H](CC(C)C)C(=O)N[C@@H](Cc2ccc(OC)cc2)C(=O)N(C)[C@H](C)C(=O)O[C@H](C)[C@H](N(C)C(=O)[C@H](CC(C)C)N(C)C(=O)[C@H](COC)N(C)C(=O)[C@H](OC(=O)[C@H](C(C)C)N(C)C)C(C)C)C(=O)N(C)[C@@H](COC)C(=O)N1C` [R7 = propargyl] (NMe2Val-[dHiv][NMeS](Me)[NMeL][NMeT][NMeS](Me)[NMePra]A[NMeL]Y(Me)[dNMeA]; ester 4-C) displayed an IC50 of 9.3 ± 3.4 nM.

In turn, `C#CC[C@@H](C(=O)N(C)[C@@H]1C(=O)N(C)[C@@H](COC)C(=O)N(C)[C@@H]([C@@H](C)CC)C(=O)N[C@@H](C)C(=O)N(C)[C@@H](CC(C)C)C(=O)N[C@@H](Cc2ccc(OC)cc2)C(=O)N(C)[C@H](C)C(=O)O[C@@H]1C)N(C)C(=O)[C@H](COC)N(C)C(=O)[C@H](OC(=O)[C@H](C(C)C)N(C)C)C(C)C` [R4 = propargyl] (NMe2Val-[dHiv][NMeS](Me)[NMePra][NMeT][NMeS](Me)[NMeI]A[NMeL]Y(Me)[dNMeA]; ester 4-C) came in with a 50% inhibitory concentration (IC50) in assay [1] of 3.7 ± 0.5 nM.

For `NCC(=O)Nc1ccc(-n2nc(C(F)(F)F)cc2-c2ccc3c(ccc4ccccc43)c2)cc1` [OSU-03012], the “Sec61α detection at 60–66 °C (melting curve)” value in assay [2] (45 to 72 °C for 3 min, 3 μM OSU-03012, 1 h) is “relatively weak immunoreactivity”. Further, the “stabilization of Sec61α, isothermal dose–response” value in assay [2] (51 °C for 3 min, OSU-03012 0.03 nM to 10 μM) is on record as “no apparent stabilization”.

The compound `C#CC[C@@H](C(=O)N(C)[C@@H](CC(C)C)C(=O)N(C)[C@@H]1C(=O)N(C)[C@@H](COC)C(=O)N(C)[C@@H]([C@@H](C)CC)C(=O)N[C@@H](C)C(=O)N(C)[C@@H](CC(C)C)C(=O)N[C@@H](Cc2ccc(OC)cc2)C(=O)N(C)[C@H](C)C(=O)O[C@@H]1C)N(C)C(=O)[C@H](OC(=O)[C@H](C(C)C)N(C)C)C(C)C` [R3 = propargyl] (NMe2Val-[dHiv][NMePra][NMeL][NMeT][NMeS](Me)[NMeI]A[NMeL]Y(Me)[dNMeA]; ester 4-C) returned an IC50 in assay [1] of 1.7 ± 0.3 nM.

For the compound `C#CC[C@H]1C(=O)N[C@@H](Cc2ccc(OC)cc2)C(=O)N(C)[C@H](C)C(=O)O[C@H](C)[C@H](N(C)C(=O)[C@H](CC(C)C)N(C)C(=O)[C@H](COC)N(C)C(=O)[C@H](OC(=O)[C@H](C(C)C)N(C)C)C(C)C)C(=O)N(C)[C@@H](COC)C(=O)N(C)[C@@H]([C@@H](C)CC)C(=O)N[C@@H](C)C(=O)N1C` [R9 = propargyl] (NMe2Val-[dHiv][NMeS](Me)[NMeL][NMeT][NMeS](Me)[NMeI]A[NMePra]Y(Me)[dNMeA]; ester 4-C), in assay [1], the midpoint of inhibition, the IC50, lay at 19 ± 7.6 nM.

`C#CC[C@@H](C(=O)N(C)[C@@H](CC(C)C)C(=O)N(C)[C@@H]1C(=O)N(C)[C@@H](COC)C(=O)N(C)[C@@H]([C@@H](C)CC)C(=O)N[C@@H](C)C(=O)N(C)[C@@H](CC(C)C)C(=O)N[C@@H](Cc2ccc(C3(C(F)(F)F)N=N3)cc2)C(=O)N(C)[C@H](C)C(=O)O[C@@H]1C)N(C)C(=O)[C@H](OC(=O)[C@H](C(C)C)N(C)C)C(C)C` [Photo-CbA] (NMe2Val-[dHiv][NMePra][NMeL][NMeT][NMeS](Me)[NMeI]A[NMeL][Phe(4-CF3-diazirinyl)][dNMeA]; ester 4-C): in the assay on HCT116 cells, the IC50 came to 6.5 nM.

The compound `C#CC[C@@H]1NC(=O)[C@H]([C@@H](C)CC)N(C)C(=O)[C@H](COC)N(C)C(=O)[C@@H](N(C)C(=O)[C@H](CC(C)C)N(C)C(=O)[C@H](COC)N(C)C(=O)[C@H](OC(=O)[C@H](C(C)C)N(C)C)C(C)C)[C@@H](C)OC(=O)[C@@H](C)N(C)C(=O)[C@H](Cc2ccc(OC)cc2)NC(=O)[C@H](CC(C)C)N(C)C1=O` [R8 = propargyl] (NMe2Val-[dHiv][NMeS](Me)[NMeL][NMeT][NMeS](Me)[NMeI][Pra][NMeL]Y(Me)[dNMeA]; ester 4-C) had a half-inhibitory concentration (IC50) in assay [1] of 66 ± 15 nM.

In turn, `C#CC[C@H]1C(=O)N(C)[C@@H]([C@@H](C)CC)C(=O)N[C@@H](C)C(=O)N(C)[C@@H](CC(C)C)C(=O)N[C@@H](Cc2ccc(OC)cc2)C(=O)N(C)[C@H](C)C(=O)O[C@H](C)[C@H](N(C)C(=O)[C@H](CC(C)C)N(C)C(=O)[C@H](COC)N(C)C(=O)[C@H](OC(=O)[C@H](C(C)C)N(C)C)C(C)C)C(=O)N1C` [R6 = propargyl] (NMe2Val-[dHiv][NMeS](Me)[NMeL][NMeT][NMePra][NMeI]A[NMeL]Y(Me)[dNMeA]; ester 4-C) had an IC50 in assay [1] of 2 ± 0.9 nM.
